Legend:
Assay in all cases: Test B pre-/postemergence plant response
Type in all cases: in vivo
[1] = system: Italian ryegrass (Lolium multiflorum)
Outline: (§1)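 Each species received compound formulated in non-phytotoxic solvent with surfactant, either at planting into a loam and sand blend or as a foliar spray once plants reached 2 to 18 cm in peat-based medium. Plants stayed in the greenhouse 13 to 15 days before visual evaluation against controls, scored 0 (no effect) to 100 (complete control).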

[2] = system: Surinam grass (Brachiaria decumbens)
Outline: as §1

[3] = system: large crabgrass (Digitaria sanguinalis)
Outline: as §1

corn (Zea mays) = system: corn (Zea mays)
Outline: as §1

[4] = system: lambsquarters (Chenopodium album)
Outline: as §1

[5] = system: goosegrass (Eleusine indica)
Outline: as §1

[6] = system: pigweed (Amaranthus retroflexus)
Outline: as §1

[7] = system: woolly cupgrass (Eriochloa villosa)
Outline: as §1

[8] = 62 g ai/ha, postemergence, 0 is no effect, 100 is complete control, 13 to 15 days
[9] = 16 g ai/ha, Postemergence, 0 to 100 scale
[10] = Postemergence, 31 g ai/ha, 0 to 100 scale (0 no effect, 100 complete control)
[11] = Postemergence, 125 g ai/ha, scale 0 to 100 (0 no effect, 100 complete control)
[12] = Postemergence, 250 g ai/ha, scale 0 to 100 (0 no effect, 100 complete control), 13 to 15 days

SMILES: COCCn1c(-c2ccsc2)ncc(C(=O)C2=C(O)CCCC2=O)c1=O [Compound 97, 5-[(2-hydroxy-6-oxo-1-cyclohexen-1-yl)carbonyl]-3-(2-methoxyethyl)-2-(3-thienyl)-4(3H)-pyrimidinone]
- Ryegrass, Italian plant response rating (0 to 100 scale) [1, 8]: 0
- pest or weed control at 31 g/ha ([1]; Lolium multiflorum, post-emergence, 31 g ai/ha, postemergence, scale 0 to 100, 0 is no effect, 100 is complete control, read-out: Plant response rating, Ryegrass, Italian): 0%
- pest or weed control at 250 g/ha ([1]; Lolium multiflorum, post-emergence, Postemergence, 250 g ai/ha, scale 0 to 100 (0 no effect, 100 complete control), read-out: Plant response rating, Ryegrass, Italian): 5%
- Surinam Grass plant response rating (0 to 100 scale) [2, 8]: 75
- pest or weed control at 31 g/ha ([2]; Urochloa decumbens, post-emergence, 31 g ai/ha, postemergence, scale 0 to 100, 0 is no effect, 100 is complete control, read-out: Plant response rating, Surinam Grass): 65%
- pest or weed control at 250 g/ha ([2]; Urochloa decumbens, post-emergence, Postemergence, 250 g ai/ha, scale 0 to 100 (0 no effect, 100 complete control), read-out: Plant response rating, Surinam Grass): 85%
- Crabgrass, Large plant response rating (0 to 100 scale) [3, 8]: 80
- pest or weed control at 31 g/ha ([3]; Digitaria sanguinalis, post-emergence, 31 g ai/ha, postemergence, scale 0 to 100, 0 is no effect, 100 is complete control, read-out: Plant response rating, Crabgrass, Large): 75%
- pest or weed control at 125 g/ha ([3]; Digitaria sanguinalis, post-emergence, Postemergence, 125 g ai/ha, visual rating after 13 to 15 days, scale 0 (no effect) to 100 (complete control)): 85%
- pest or weed control at 250 g/ha ([3]; Digitaria sanguinalis, post-emergence, Postemergence, 250 g ai/ha, scale 0 to 100 (0 no effect, 100 complete control), read-out: Plant response rating, Crabgrass, Large): 95%
- Corn plant response rating (0 to 100 scale) (corn (Zea mays); [8]): 40
- Corn plant response rating (crop injury, 0 = no effect, 100 = complete kill) at 31 g/ha (corn (Zea mays); Zea mays, post-emergence, 31 g ai/ha, postemergence, scale 0 to 100, 0 is no effect, 100 is complete control): 20%
- Corn plant response rating (crop injury, 0 = no effect, 100 = complete kill) at 125 g/ha (corn (Zea mays); Zea mays, post-emergence, Postemergence, 125 g ai/ha, visual rating after 13 to 15 days, scale 0 (no effect) to 100 (complete control)): 60%
- Corn plant response rating (crop injury, 0 = no effect, 100 = complete kill) at 250 g/ha (corn (Zea mays); Zea mays, post-emergence, Postemergence, 250 g ai/ha, scale 0 to 100 (0 no effect, 100 complete control)): 75%
- Lambsquarters plant response rating (0 to 100 scale) [4, 8]: 100
- pest or weed control at 31 g/ha ([4]; Chenopodium album, post-emergence, 31 g ai/ha, postemergence, scale 0 to 100, 0 is no effect, 100 is complete control, read-out: Plant response rating, Lambsquarters): 90%
- pest or weed control at 250 g/ha ([4]; Chenopodium album, post-emergence, Postemergence, 250 g ai/ha, scale 0 to 100 (0 no effect, 100 complete control), read-out: Plant response rating, Lambsquarters): 100%
- Goosegrass plant response rating (0 to 100 scale) [5, 8]: 70
- pest or weed control at 31 g/ha ([5]; Eleusine indica, post-emergence, 31 g ai/ha, postemergence, scale 0 to 100, 0 is no effect, 100 is complete control, read-out: Plant response rating, Goosegrass): 60%
- pest or weed control at 250 g/ha ([5]; Eleusine indica, post-emergence, Postemergence, 250 g ai/ha, scale 0 to 100 (0 no effect, 100 complete control), read-out: Plant response rating, Goosegrass): 98%
- Pigweed plant response rating (0 to 100 scale) [6, 8]: 100
- pest or weed control at 31 g/ha ([6]; Amaranthus retroflexus, post-emergence, 31 g ai/ha, postemergence, scale 0 to 100, 0 is no effect, 100 is complete control, read-out: Plant response rating, Pigweed): 95%
- pest or weed control at 250 g/ha ([6]; Amaranthus retroflexus, post-emergence, Postemergence, 250 g ai/ha, scale 0 to 100 (0 no effect, 100 complete control), read-out: Plant response rating, Pigweed): 100%
- Cupgrass, Woolly plant response rating (0 to 100 scale) [7, 8]: 60
- pest or weed control at 31 g/ha ([7]; Eriochloa villosa, post-emergence, 31 g ai/ha, postemergence, scale 0 to 100, 0 is no effect, 100 is complete control, read-out: Plant response rating, Cupgrass, Woolly): 55%
- pest or weed control at 125 g/ha ([7]; Eriochloa villosa, post-emergence, Postemergence, 125 g ai/ha, visual rating after 13 to 15 days, scale 0 (no effect) to 100 (complete control)): 70%
- pest or weed control at 250 g/ha ([7]; Eriochloa villosa, post-emergence, Postemergence, 250 g ai/ha, scale 0 to 100 (0 no effect, 100 complete control), read-out: Plant response rating, Cupgrass, Woolly): 75%

SMILES: O=C1CCCC(O)=C1C(=O)c1cnc(-c2ccccc2)n(C2CC[S+]([O-])CC2)c1=O (mixture of isomers) [Compound 169, 5-[(2-hydroxy-6-oxo-1-cyclohexen-1-yl)carbonyl]-2-phenyl-3-(trans/cis-tetrahydro-1-oxido-2H-thiopyran-4-yl)-4(3H)-pyrimidinone]
- Plant response rating, Ryegrass, Italian [1, 9]: 0
- Plant response rating, Ryegrass, Italian [1, 10]: 0
- Plant response rating, Ryegrass, Italian [1, 11]: 10
- Plant response rating, Crabgrass, Large [3, 9]: 75
- Plant response rating, Crabgrass, Large [3, 10]: 85
- Plant response rating, Crabgrass, Large [3, 11]: 100
- Plant response rating, Corn (corn (Zea mays); [9]): 20
- Plant response rating, Corn (corn (Zea mays); [10]): 45
- Plant response rating, Corn (corn (Zea mays); [11]): 55
- Plant response rating, Lambsquarters [4, 9]: 95
- Plant response rating, Lambsquarters [4, 10]: 100
- Plant response rating, Lambsquarters [4, 11]: 100
- Plant response rating, Goosegrass [5, 9]: 80
- Plant response rating, Goosegrass [5, 10]: 95
- Plant response rating, Goosegrass [5, 11]: 100
- Plant response rating, Pigweed [6, 9]: 90
- Plant response rating, Pigweed [6, 10]: 100
- Plant response rating, Pigweed [6, 11]: 100
- Plant response rating, Cupgrass, Woolly [7, 9]: 75
- Plant response rating, Cupgrass, Woolly [7, 10]: 85
- Plant response rating, Cupgrass, Woolly [7, 11]: 100

SMILES: CCCn1c(-c2cc(Cl)cc(Cl)c2)ncc(C(=O)C2=C(O)CCCC2=O)c1=O [Compound 173]
- Plant response rating, Ryegrass, Italian [1, 10]: 0
- Plant response rating, Ryegrass, Italian [1, 11]: 30
- Plant response rating, Ryegrass, Italian [1, 12]: 30
- Plant response rating, Crabgrass, Large [3, 10]: 70
- Plant response rating, Crabgrass, Large [3, 11]: 95
- Plant response rating, Crabgrass, Large [3, 12]: 100
- Plant response rating, Corn (corn (Zea mays); [10]): 5
- Plant response rating, Corn (corn (Zea mays); [11]): 60
- Plant response rating, Corn (corn (Zea mays); [12]): 85
- Plant response rating, Lambsquarters [4, 10]: 98
- Plant response rating, Lambsquarters [4, 11]: 100
- Plant response rating, Lambsquarters [4, 12]: 100
- Plant response rating, Goosegrass [5, 10]: 80
- Plant response rating, Goosegrass [5, 11]: 95
- Plant response rating, Goosegrass [5, 12]: 100
- Plant response rating, Pigweed [6, 10]: 85
- Plant response rating, Pigweed [6, 11]: 100
- Plant response rating, Pigweed [6, 12]: 100
- Plant response rating, Cupgrass, Woolly [7, 10]: 85
- Plant response rating, Cupgrass, Woolly [7, 11]: 100
- Plant response rating, Cupgrass, Woolly [7, 12]: 100
